Experimental data published in patent US5912259A, “Method for treating and preventing neurodegenerative disorders by administering a thiazolidinone” (Warner-Lambert Company, priority 1998, dated 1999).
Read-outs that look alike come from different tables or passages of the source.

Experiments:
[1] = test system: inducible nitric oxide synthase (iNOS), BV-2 microglia; experiment: Nitric oxide production in LPS-activated BV-2 microglia (Griess reaction); type: cell-based; details: Mus musculus, LPS 4 μg/mL, 16 hours, read-out: IC50, inhibition of nitric oxide production
Description: (§1) BV-2 microglia were grown in 6-well tissue culture plates in DMEM/F12 media supplemented with 10% fetal calf serum. Prior to activation, cells were given fresh media containing various amounts of thiazolidinone. One hour after drug treatment, microglia were activated with lipopolysaccharide (LPS, 4 μg/mL) and placed in an incubator at 37° C. in an atmosphere containing 5% CO2. After 16 hours, cultures were evaluated for inducible nitric oxide synthase (iNOS) activity and expression. iNOS activity was determined using the Griess reaction. Cell-free culture media was mixed with an equal volume of Griess reagent (one volume of 1.0% sulfanilamide in 5% phosphoric acid mixed with one volume of 0.1% naphthylenediamine dihydrochloride in water) and incubated for 5 minutes at room temperature. Absorbance was measured at 560 nm and the concentration within a sample was determined using sodium nitrite as standard. iNOS expression was evaluated by extracting cellular protein and performing Western blot analysis using a monoclonal antibody specific for iNOS.

[2] = test system: iNOS, BV-2 microglia; experiment: iNOS expression in LPS-activated BV-2 microglia (Western blot); type: cell-based
Description: as §1

[3] = test system: NMDA-induced injury; details: for percent protection against NMDA-induced injury: 15 minutes and 2.25 hours after NMDA
Description: Intrastriatal injections of NMDA (15 nmol/0.5 μL) were performed in male and female Sprague-Dawley rat pups (Charles River Laboratory, Portage, Mich.) on Postnatal Day (PND) 7. The animals were anesthetized with ether, and the calvarium was exposed by a midline incision through the skin. The rat pups were placed in a plaster of paris mold that was secured to a small animal stereotaxic instrument (Kopf Instruments). NMDA (Sigma) was dissolved in 0.1 M phosphate-buffered saline (PBS) adjusted to pH 7.4 with 1 N NaOH. Injections of NMDA ([…]) were placed in the middle of the right posterior corpus striatum (coordinates relative to Bregma; AP -2.0 mm, ML 2.5 mm, at a depth of 4.0 mm from the dura) with a 26-gauge Hamilton syringe. The syringe was left in place for 2 minutes following the injections to limit leakage. Temperature of the animals was kept constant after surgery in a thermostatically controlled environment (HovaBator chick incubator; BFG Corp., Savannah, Ga.) set at 35° C. to 36° C. for 1 hour after the last drug or vehicle injection. Drug solutions were prepared in PBS and injected intraperitoneally (0.05 mL volume) 15 minutes, and 2.25 hours after intrastriatal injection of NMDA. Control animals received equal volumes of PBS.
After surgery, all animals were returned to the mothers for 5 days, and decapitated on PND 12. The brains were removed, the cerebral hemispheres were separated, and wet weights of each hemisphere were determined individually. Differences of the hemispheric weights were compared for each animal using the formula: 100×(C-I/C)=percent damage, a value that indicates the severity of damage of the injected (I) cerebral hemisphere relative to that of the uninjected contralateral (C) hemisphere. Percent protection is used to indicate the relative protection of the neuroprotective compound compared to the control and was calculated as: 100×[1-(% damagetreated /% damagecontrol)]. Data were expressed as mean percent damage±S.E.M. in all groups. Independent t-tests were used for statistical comparisons.

[4] = 13-week toxicity study in monkeys; type: in vivo, monkey
Description: As noted above, the thiazolidinone is additionally well-suited to treating elderly patients because of its long duration of action and its substantial lack of undesirable side effects. Toxicologic properties of the thiazolidinone were evaluated in single-dose oral and intravenous (IV) studies in mice and rats and multidose oral studies in rats and dogs. The thiazolidinone was tested in dogs and monkeys in escalating-dose oral toxicity to determine the most sensitive nonrodent species. […] The initial 13-week dog study was repeated to evaluate the reproducibility of the perivascular effects. Dose range-finding studies were performed in pregnant rats and rabbits, and genotoxic potential was assessed in vitro and in vivo. […] Based on exposure at the no-effect dose in definitive studies, the rat appears to be the most sensitive species followed by the dog and the monkey, albeit with minor differences in exposure between the species.

[5] = test system: canine leptomeningeal smooth muscle cells; experiment: Amyloid β-peptide-induced cytotoxicity in canine leptomeningeal smooth muscle cells; type: cell-based, dog
Text: Canine smooth muscle cells were isolated from freshly obtained old dog meninges. […] Old dogs have an angiopathy resembling the human condition. Smooth muscle cells are the site of cerebral vessel myopathy occurring in the Dutch form of Alzheimer's disease. The compromise of these cells ultimately leads to a cerebrovascular accident and the death of some humans.
Cells from the meninges were dissociated and kept in culture in 10% fetal calf serum and Dulbecco's minimal essential media with antibiotics for about 1 week on tissue culture plates before use in biochemical studies or transferal to uncoated microscope slides for morphological studies. These smooth muscle cells represent brain blood vessel cells and they can be passaged several times. For inducing cytotoxicity, the cells were treated, in serum-free media, with 10 to 20 μM of amyloid β-peptide that was 42 amino acids long. This peptide corresponds to the human β-peptide sequence. The peptide was dissolved in water immediately before use. This small amount of protein is believed to approximate the concentration of protein observed in postmortem samples in the brains of people who died with Alzheimer's dementia.
Percentages were determined by counting normal and apoptotic nuclei in three fields with five independent measures in a fluorescence microscope.

[6] = test system: E-selectin; experiment: Cell-surface expression of E-selectin; type: cell-based

CC(C)(C)c1cc(/C=C2\SC(N)=NC2=O)cc(C(C)(C)C)c1O [CI-1004, (Z)-5-[[3,5-bis(1,1-dimethylethyl)-4-hydroxyphenyl]methylene]-2-imino-4-thiazolidinone methanesulfonate]
IC50 [1]: 2.4 µM
iNOS protein expression [2]: decrease in protein expression
percent protection against NMDA-induced injury ([3]; 2×10 mg/kg i.p., p<0.04): 28.1±9.2%
percent protection against NMDA-induced injury ([3]; 2×30 mg/kg i.p., p<0.001): 49±8.2%
survival to PND 12 ([3]; rat, in vivo, 30 mg/kg): One animal dosed with thiazolidinone (2×30 mg/kg) did not survive to PND 12
ileo-cecal erosions ([4]; 13-week study, not attributed to drug): Superficial ileo-cecal erosions identified microscopically were observed
NSAID-related changes ([4]; 13 weeks): No typical NSAID-related changes were observed
amyloid accumulation over the cells [5]: amyloid accumulation over the cells was reduced
cell death induced by amyloid ([5]; 20-30 μM in 5% DMSO/water v/v): significantly decrease the cell death induced by the amyloid
cell-surface expression of E-selectin [6]: blocks
